Experimental data taken from ChEMBL document CHEMBL1133484 (Bioorg Med Chem Lett, 2000).
Starred links: 1 amine or outer side, 2 acyl side, 3 side chain; linkers in the order of their positions; H or OH if unused. Non-standard residues stand in square brackets, D forms with d. Residues, ends and D or L forms follow the SMILES beside them. *: point of attachment. X2 = O=C([C@@H]1C[C@@H](CCCc2ccccc2)CN1[*:1])[*:2]; X3 = O=C([C@@H]1C[C@@H](CCc2ccccc2)CN1[*:1])[*:2]; Pro(4R-Bn) = O=C(O)[C@@H]1C[C@@H](Cc2ccccc2)CN1; CH2(1-naphthyl) = c1ccc2c(C*)cccc2c1; mXylylene = c1cc(C[*:1])cc(C[*:2])c1; oXylylene = c1ccc(C[*:2])c(C[*:1])c1; Glutaryl = O=C(CCCC(=O)[*:2])[*:1]; Hyp = O=C(O)[C@@H]1C[C@@H](O)CN1; Chg = N[C@H](C(=O)O)C1CCCCC1; Nva = CCC[C@H](N)C(=O)O; X1 = c1ccc2cc(C*)ccc2c1; Ac3c = NC1(C(=O)O)CC1; Meb = Cc1ccc(C*)cc1; CF3 = FC(F)(F)*

What was measured:
[1] = target: T1, NS3 (Hepatitis C virus, UniProt A3EZJ3); assay: Inhibitory activity against NS3 protease complexed with NS4A cofactor peptide (NS3-4A pep); design: species or system Hepacivirus hominis
[2] = target: Chymotrypsinogen B (Homo sapiens, UniProt P17538); assay: Compound was evaluated for its inhibitory activity against Chymotrypsinogen
[3] = target: Cathepsin B (Homo sapiens, UniProt P07858); assay: Compound was evaluated for its inhibitory activity against cathepsin B
[4] = target: T1, NS3; assay: Compound was evaluated for its binding affinity against NS3 protease complexed with NS4A cofactor peptide (NS3-4A pep); design: species or system Hepacivirus hominis
[5] = target: T2, Neutrophil elastase (Homo sapiens, UniProt P08246); assay: Compound was evaluated for its inhibitory activity against human leukocyte elastase (HLE)
T2 sequence (P08246 whole entry): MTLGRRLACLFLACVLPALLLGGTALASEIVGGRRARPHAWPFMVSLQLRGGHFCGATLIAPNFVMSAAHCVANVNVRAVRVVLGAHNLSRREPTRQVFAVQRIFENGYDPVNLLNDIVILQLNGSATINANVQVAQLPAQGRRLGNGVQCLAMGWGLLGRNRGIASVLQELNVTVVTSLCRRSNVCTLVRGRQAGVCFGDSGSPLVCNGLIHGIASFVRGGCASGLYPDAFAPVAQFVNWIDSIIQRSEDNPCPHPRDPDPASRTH

T1 sequence (A3EZJ3 whole entry): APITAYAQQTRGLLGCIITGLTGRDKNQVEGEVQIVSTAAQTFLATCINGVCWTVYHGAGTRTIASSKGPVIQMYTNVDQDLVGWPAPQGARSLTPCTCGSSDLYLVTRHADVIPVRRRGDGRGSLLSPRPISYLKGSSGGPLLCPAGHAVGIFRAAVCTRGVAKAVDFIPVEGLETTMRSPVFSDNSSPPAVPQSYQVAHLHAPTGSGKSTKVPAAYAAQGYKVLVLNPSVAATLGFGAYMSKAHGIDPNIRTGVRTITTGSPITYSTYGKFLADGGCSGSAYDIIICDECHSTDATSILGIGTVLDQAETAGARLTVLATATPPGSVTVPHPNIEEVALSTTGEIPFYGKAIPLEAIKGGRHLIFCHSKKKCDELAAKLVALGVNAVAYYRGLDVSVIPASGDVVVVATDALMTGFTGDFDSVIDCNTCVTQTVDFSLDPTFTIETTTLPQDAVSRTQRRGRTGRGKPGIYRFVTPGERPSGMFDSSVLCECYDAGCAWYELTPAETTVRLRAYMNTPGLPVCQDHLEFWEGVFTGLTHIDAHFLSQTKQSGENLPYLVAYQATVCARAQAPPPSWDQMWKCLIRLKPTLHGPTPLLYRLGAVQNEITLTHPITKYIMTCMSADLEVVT
Chain of Chymotrypsinogen B (P17538 34-164 limits assumed, other chains not shown): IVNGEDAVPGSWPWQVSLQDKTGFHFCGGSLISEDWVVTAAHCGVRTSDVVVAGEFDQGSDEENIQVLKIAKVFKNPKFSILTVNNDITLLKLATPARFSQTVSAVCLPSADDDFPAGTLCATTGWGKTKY
Chain of Chymotrypsinogen B (P17538 167-263 limits assumed, other chains not shown): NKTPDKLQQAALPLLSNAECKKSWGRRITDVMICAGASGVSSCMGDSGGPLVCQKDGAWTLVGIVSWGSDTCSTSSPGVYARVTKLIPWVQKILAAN

| Structure (SMILES) | IC50 [1] | other results |
| --- | --- | --- |
| CC[C@H](C)[C@H](NC(=O)[C@H](CC(=O)O)NC(=O)[C@H](CC(=O)O)NC(C)=O)C(=O)N[C@H](C(=O)N1CCC[C@H]1C(=O)NC1(C(=O)O)CC1)C(C)C (Ac-DDIVP[Ac3c]-OH) | 54 µM |  |
| CCC[C@H](NC(=O)[C@@H]1CCCN1C(=O)[C@@H](NC(=O)[C@@H](NC(=O)[C@H](CC(=O)O)NC(=O)[C@H](CC(=O)O)NC(C)=O)[C@@H](C)CC)C(C)C)C(=O)O (Ac-DDIVP[Nva]-OH) | 150 µM |  |
| CCC[C@H](NC(=O)[C@@H]1C[C@@H](OCc2cccc3ccccc23)CN1C(=O)[C@@H](NC(=O)[C@@H](NC(=O)[C@H](CC(=O)O)NC(=O)[C@H](CC(=O)O)NC(C)=O)[C@@H](C)CC)C(C)C)C(=O)O (Ac-DDIV[Hyp](CH2(1-naphthyl))[Nva]-OH) | 0.39 µM |  |
| CCC[C@H](NC(=O)[C@@H]1C[C@@H](OCc2cccc(C)c2)CN1C(=O)[C@@H](NC(=O)[C@@H](NC(=O)[C@H](CC(=O)O)NC(=O)[C@H](CC(=O)O)NC(C)=O)[C@@H](C)CC)C(C)C)C(=O)O (Ac-DDIV[Hyp](mXylylene)[Nva]-OH) | 3.5 µM |  |
| CCC[C@H](NC(=O)[C@@H]1C[C@@H](O)CN1C(=O)[C@@H](NC(=O)[C@@H](NC(=O)[C@H](CC(=O)O)NC(=O)[C@H](CC(=O)O)NC(C)=O)[C@@H](C)CC)C(C)C)C(=O)O (Ac-DDIV[Hyp][Nva]-OH) | 93 µM |  |
| CCC[C@H](NC(=O)[C@@H]1C[C@@H](CCCc2ccccc2)CN1C(=O)[C@@H](NC(=O)[C@@H](NC(=O)[C@H](CC(=O)O)NC(=O)[C@H](CC(=O)O)NC(C)=O)[C@@H](C)CC)C(C)C)C(=O)O (Ac-DDIV[X2][Nva]-OH) | 3.3 µM |  |
| CCC[C@H](NC(=O)[C@@H]1C[C@@H](CCc2ccccc2)CN1C(=O)[C@@H](NC(=O)[C@@H](NC(=O)[C@H](CC(=O)O)NC(=O)[C@H](CC(=O)O)NC(C)=O)[C@@H](C)CC)C(C)C)C(=O)O (Ac-DDIV[X3][Nva]-OH) | 10 µM |  |
| CCC[C@H](NC(=O)[C@@H]1CCCN1C(=O)[C@@H](NC(=O)[C@@H](NC(=O)[C@@H](CC(=O)O)NC(=O)[C@H](CC(=O)O)NC(C)=O)[C@@H](C)CC)C(C)C)C(=O)C(F)(F)F (Ac-D[dD]IVP[Nva]-CF3) | 22 µM |  |
| CCC[C@H](NC(=O)[C@@H]1CCCN1C(=O)[C@@H](NC(=O)[C@@H](NC(=O)[C@@H](CC(=O)O)NC(=O)[C@H](CC(=O)O)NC(C)=O)[C@@H](C)CC)C(C)C)C(=O)O (Ac-D[dD]IVP[Nva]-OH) | 17 µM |  |
| CCC[C@H](NC(=O)[C@@H]1CCCN1C(=O)[C@@H](NC(=O)[C@@H](NC(=O)[C@@H](CCC(=O)O)NC(=O)[C@H](CC(=O)O)NC(C)=O)[C@@H](C)CC)C(C)C)C(=O)O (Ac-D[dE]IVP[Nva]-OH) | 7.5 µM |  |
| CCC[C@H](NC(=O)[C@@H]1C[C@@H](OCc2ccc3ccccc3c2)CN1C(=O)[C@@H](NC(=O)[C@@H](NC(=O)[C@@H](CCC(=O)O)NC(=O)[C@H](CC(=O)O)NC(C)=O)C1CCCCC1)C(C)C)C(=O)O (Ac-D[dE][Chg]V[Hyp](X1)[Nva]-OH) | 0.027 µM | IC50 [2]: > 300 µM; IC50 [3]: > 300 µM; Ki [4]: 0.003 µM; IC50 [5]: > 300 µM |
| CC(C)[C@H](NC(=O)[C@@H](NC(=O)CCCC(=O)O)C1CCCCC1)C(=O)N1C[C@H](OCc2cccc3ccccc23)C[C@H]1C(=O)NC1(C(=O)O)CC1 (Glutaryl-[Chg]V[Hyp](CH2(1-naphthyl))[Ac3c]-OH) | 0.9 µM |  |

Second part, led by results:

| IC50 [1] | Structure (SMILES) | other results |
| --- | --- | --- |
| 2.5 µM | CCC[C@H](NC(=O)[C@@H]1C[C@@H](OCc2ccc(C)cc2)CN1C(=O)[C@@H](NC(=O)[C@@H](NC(=O)[C@H](CC(=O)O)NC(=O)[C@H](CC(=O)O)NC(C)=O)[C@@H](C)CC)C(C)C)C(=O)O (Ac-DDIV[Hyp](Meb)[Nva]-OH) |  |
| 0.71 µM | CCC[C@H](NC(=O)[C@@H]1C[C@@H](OCc2ccc3ccccc3c2)CN1C(=O)[C@@H](NC(=O)[C@@H](NC(=O)[C@H](CC(=O)O)NC(=O)[C@H](CC(=O)O)NC(C)=O)[C@@H](C)CC)C(C)C)C(=O)O (Ac-DDIV[Hyp](X1)[Nva]-OH) |  |
| 6.8 µM | CCC[C@H](NC(=O)[C@@H]1C[C@@H](OCc2ccccc2C)CN1C(=O)[C@@H](NC(=O)[C@@H](NC(=O)[C@H](CC(=O)O)NC(=O)[C@H](CC(=O)O)NC(C)=O)[C@@H](C)CC)C(C)C)C(=O)O (Ac-DDIV[Hyp](oXylylene)[Nva]-OH) |  |
| 60 µM | CCC[C@H](NC(=O)[C@@H]1C[C@@H](Cc2ccccc2)CN1C(=O)[C@@H](NC(=O)[C@@H](NC(=O)[C@H](CC(=O)O)NC(=O)[C@H](CC(=O)O)NC(C)=O)[C@@H](C)CC)C(C)C)C(=O)O (Ac-DDIV[Pro(4R-Bn)][Nva]-OH) |  |
| 0.013 µM | CC(=O)N[C@@H](CC(=O)O)C(=O)N[C@H](CCC(=O)O)C(=O)N[C@H](C(=O)N[C@H](C(=O)N1C[C@H](OCc2cccc3ccccc23)C[C@H]1C(=O)NC1(C(=O)O)CC1)C(C)C)C1CCCCC1 (Ac-D[dE][Chg]V[Hyp](CH2(1-naphthyl))[Ac3c]-OH) |  |
| 3.5 µM | CC(=O)N[C@H](C(=O)N[C@H](C(=O)N1C[C@H](OCc2cccc3ccccc23)C[C@H]1C(=O)NC1(C(=O)O)CC1)C(C)C)C1CCCCC1 (Ac-[Chg]V[Hyp](CH2(1-naphthyl))[Ac3c]-OH) | IC50 [5]: > 600 µM |
